Data from ChEMBL document CHEMBL3399982, “Azachalcones: a new class of potent polyphenol oxidase inhibitors” (Bioorg Med Chem Lett, 2015).

Assays:
[1] = biological target: T1, Tyrosinase (Agaricus bisporus) (UniProt O42713); assay: Inhibition of mushroom tyrosinase assessed as inhibition of L-DOPA oxidase activity; conditions: concentration not given here
T1 sequence (whole entry): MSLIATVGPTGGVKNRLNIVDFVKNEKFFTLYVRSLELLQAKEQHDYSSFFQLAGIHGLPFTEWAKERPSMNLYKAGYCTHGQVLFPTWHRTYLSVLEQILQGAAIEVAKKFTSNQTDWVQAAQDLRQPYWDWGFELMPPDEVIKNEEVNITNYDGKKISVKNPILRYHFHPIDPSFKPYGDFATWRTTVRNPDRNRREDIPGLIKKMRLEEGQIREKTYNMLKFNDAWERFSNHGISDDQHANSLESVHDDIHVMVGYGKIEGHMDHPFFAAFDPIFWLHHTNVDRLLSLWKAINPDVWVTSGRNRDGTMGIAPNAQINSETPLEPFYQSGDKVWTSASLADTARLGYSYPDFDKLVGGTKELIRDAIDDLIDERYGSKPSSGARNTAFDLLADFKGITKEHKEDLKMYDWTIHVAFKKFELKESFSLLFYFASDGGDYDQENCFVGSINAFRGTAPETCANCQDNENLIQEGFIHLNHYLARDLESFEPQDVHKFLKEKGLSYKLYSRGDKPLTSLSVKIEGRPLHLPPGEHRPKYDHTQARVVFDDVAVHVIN

Tyrosinase [2] = biological target: T2, Tyrosinase (Agaricus bisporus, UniProt O42713); assay: Competitive inhibition of mushroom tyrosinase assessed as inhibition of L-DOPA oxidase activity
T2 sequence (O42713 whole entry): T1 sequence (whole entry)

Tyrosinase [3] = biological target: T2, Tyrosinase

Row | Compound | inhibition [1] | IC50 (Tyrosinase [2]) | Ki (Tyrosinase [3])
1 | CN(C)c1ccc(/C=C/C(=O)c2ccccc2O)cc1 | 27.2% |  | 
2 | O=C(/C=C/c1cccc([N+](=O)[O-])c1)c1ccccc1O | 42.2% |  | 
3 | O=C(/C=C/c1ccc2ccccc2n1)c1ccccc1O | 8.9% |  | 
4 | O=C(/C=C/c1ccccn1)c1ccccc1O | 56.8% |  | 
5 | COc1ccc(/C=C/C(=O)c2ccccn2)c(OC)c1 | 42.7% |  | 
6 | Oc1ccccc1C(O)/C=C/c1ccncc1 (configuration not stated) | 57.2% | 2.3 µM | 8.1 µM
7 | CN(C)c1ccc(/C=C/C(=O)c2ccccn2)cc1 | 39.7% |  | 
8 | Oc1ccccc1C(O)/C=C/c1ccccn1 (configuration not stated) | 80.2% | 1.7 µM | 2.62 µM
9 | O=C(/C=C/c1cccnc1)c1ccccc1O | 49.3% |  | 
10 | O=C(/C=C/c1cccc([N+](=O)[O-])c1)c1ccccc1 | 18% |  | 
11 | O=C(/C=C/c1cnc2ccccc2c1)c1ccccc1O | 12.3% |  | 
12 | O=C(/C=C/c1ccccn1)c1ccccc1 | 34% |  | 
13 | O=C(/C=C/c1ccncc1)c1ccccc1O | 39.7% |  | 
